Earlier results in patent EP1783518B1, “Functionalized dyes and use thereof in ophthalmic lens material” (Ophtec B.V., priority 2005, dated 2007).
≈ marks a conversion by molar mass, not a printed value.

Cc1cc(N=Nc2ccc(N=Nc3ccccc3)cc2)ccc1O [Disperse Yellow 7, 4-[[p-(phenylazo)phenyl]azo]-o-cresol]
solubility in EGME (ethylene glycol monomethyl ether (EGME)): 80 mg/mL (≈ 253 mM)

O=C(O)c1cc(N=Nc2ccc(N=Nc3ccc(S(=O)(=O)[O-])cc3)cc2)ccc1[O-].[Na+].[Na+] [Mordant Orange 6]
solubility in water: 40 mg/mL

Cc1cc(N=Nc2ccc(N=Nc3ccc(S(=O)(=O)O)cc3)cc2)cc(C(=O)O)c1O.[Na+] [Mordant Orange 10]
solubility in water: 40 mg/mL
